Laboratory results taken from US12084459B2, “2-(4-{1-[6-(4-isopropyl-phenyl)-imidazo[2,1-b][1,3,4]thiadiazol-2-yl]-piperidin-4-ylmethyl}-piperazin-1-yl)-ethanol and use thereof” (Urifer Ltd., priority 2020, dated 2024).

Assay: toxicity in mice: body weight and observations after IP administration
Type: in vivo
Method in brief: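 Mice (female where stated) received the test compound intraperitoneally on day 1, dissolved in 20% hydroxypropylcyclodextrane at an administration volume of 10 ml/kg. Toxicity was assessed from body weight, body weight change (% wt/wt) and observations of the animals after administration.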

[1] = female mice, 100 mg/kg IP, day 1
[2] = female mice, 100 mg/kg IP, day 2
[3] = female mice, 100 mg/kg IP, day 3
[4] = female mice, 100 mg/kg IP, day 4
[5] = female mice, 100 mg/kg IP, day 5
[6] = female mice, 100 mg/kg IP, day 6
[7] = female mice, 100 mg/kg IP, day 7
[8] = female mice, 100 mg/kg IP, day 8
[9] = female mice, 100 mg/kg IP, day 9
[10] = female mice, 100 mg/kg IP, day 10
[11] = female mice, 100 mg/kg IP, day 11
[12] = female mice, 100 mg/kg IP, day 12
[13] = female mice, 100 mg/kg IP, day 13
[14] = female mice, 100 mg/kg IP, day 14
[15] = female mice, 100 mg/kg IP, day 15
[16] = female mice, 200 mg/kg IP, day 1
[17] = female mice, 200 mg/kg IP, day 2
[18] = female mice, 200 mg/kg IP, day 3
[19] = female mice, 200 mg/kg IP, day 4
[20] = female mice, 200 mg/kg IP, day 5
[21] = female mice, 200 mg/kg IP, day 6
[22] = female mice, 200 mg/kg IP, day 7
[23] = female mice, 200 mg/kg IP, day 8
[24] = female mice, 200 mg/kg IP, day 9
[25] = female mice, 200 mg/kg IP, day 10
[26] = female mice, 200 mg/kg IP, day 11
[27] = female mice, 200 mg/kg IP, day 12
[28] = female mice, 200 mg/kg IP, day 13
[29] = female mice, 200 mg/kg IP, day 14
[30] = female mice, 200 mg/kg IP, day 15
[31] = female mice, 400 mg/kg IP, day 1
[32] = female mice, 400 mg/kg IP, day 2
[33] = female mice, 400 mg/kg IP, day 3
[34] = female mice, 400 mg/kg IP, day 4
[35] = female mice, 400 mg/kg IP, day 5
[36] = female mice, 400 mg/kg IP, day 6
[37] = female mice, 400 mg/kg IP, day 7
[38] = female mice, 400 mg/kg IP, day 8
[39] = female mice, 400 mg/kg IP, day 9
[40] = female mice, 400 mg/kg IP, day 10
[41] = female mice, 400 mg/kg IP, day 11
[42] = female mice, 400 mg/kg IP, day 12
[43] = female mice, 400 mg/kg IP, day 13
[44] = female mice, 400 mg/kg IP, day 14
[45] = female mice, 400 mg/kg IP, day 15
[46] = male mice, 100 mg/kg IP, day 10
[47] = male mice, 100 mg/kg IP, day 11
[48] = male mice, 100 mg/kg IP, day 12
[49] = male mice, 100 mg/kg IP, day 13
[50] = male mice, 100 mg/kg IP, day 14
[51] = male mice, 100 mg/kg IP, day 15
[52] = male mice, 200 mg/kg IP, day 10
[53] = male mice, 200 mg/kg IP, day 11
[54] = male mice, 200 mg/kg IP, day 12
[55] = male mice, 200 mg/kg IP, day 13
[56] = male mice, 200 mg/kg IP, day 14
[57] = male mice, 200 mg/kg IP, day 15
[58] = male mice, 400 mg/kg IP, day 10
[59] = male mice, 400 mg/kg IP, day 11
[60] = male mice, 400 mg/kg IP, day 12
[61] = male mice, 400 mg/kg IP, day 13
[62] = male mice, 400 mg/kg IP, day 14
[63] = male mice, 400 mg/kg IP, day 15

CC(C)c1ccc(-c2cn3nc(N4CCC(CN5CCN(CCO)CC5)CC4)sc3n2)cc1 [Compound E266, 2-(4-{1-[6-(4-isopropyl-phenyl)-imidazo[2,1-b][1,3,4]thiadiazol-2-yl]-piperidin-4-ylmethyl}-piperazin-1-yl)-ethanol]
body weight [1]: 36.1 g
body weight change (% wt/wt) [1]: 0%
body weight [2]: 35.7 g
body weight change (% wt/wt) [2]: −1.1%
body weight [3]: 36.1 g
body weight change (% wt/wt) [3]: 0.0%
body weight [4]: 35.2 g
body weight change (% wt/wt) [4]: −2.5%
body weight [5]: 34 g
body weight change (% wt/wt) [5]: −5.8%
body weight [6]: 33.9 g
body weight change (% wt/wt) [6]: −6.1%
body weight [7]: 34 g
body weight change (% wt/wt) [7]: −5.8%
body weight [8]: 33.6 g
body weight change (% wt/wt) [8]: −6.9%
body weight [9]: 32.4 g
body weight change (% wt/wt) [9]: −10.2%
body weight [10]: 33.5 g
body weight change (% wt/wt) [10]: −7.2%
body weight [11]: 32.6 g
body weight change (% wt/wt) [11]: −9.7%
body weight [12]: 33.4 g
body weight change (% wt/wt) [12]: −7.5%
body weight [13]: 32.8 g
body weight change (% wt/wt) [13]: −9.1%
body weight [14]: 32.2 g
body weight change (% wt/wt) [14]: −10.8%
body weight [15]: 32.4 g
body weight change (% wt/wt) [15]: −10.2%
body weight [16]: 31.5 g
body weight change (% wt/wt) [16]: 0%
body weight [17]: 30.5 g
body weight change (% wt/wt) [17]: −3.2%
body weight [18]: 30.8 g
body weight change (% wt/wt) [18]: −2.2%
body weight [19]: 30.6 g
body weight change (% wt/wt) [19]: −2.9%
body weight [20]: 30.6 g
body weight change (% wt/wt) [20]: −2.9%
body weight [21]: 30.9 g
body weight change (% wt/wt) [21]: −1.9%
body weight [22]: 31 g
body weight change (% wt/wt) [22]: −1.6%
body weight [23]: 31.1 g
body weight change (% wt/wt) [23]: −1.3%
body weight [24]: 30.6 g
body weight change (% wt/wt) [24]: −2.9%
body weight [25]: 31.2 g
body weight change (% wt/wt) [25]: −1.0%
body weight [26]: 29.9 g
body weight change (% wt/wt) [26]: −5.1%
body weight [27]: 30.6 g
body weight change (% wt/wt) [27]: −2.9%
body weight [28]: 30.6 g
body weight change (% wt/wt) [28]: −2.9%
body weight [29]: 30.8 g
body weight change (% wt/wt) [29]: −2.2%
body weight [30]: 30.5 g
body weight change (% wt/wt) [30]: −3.2%
body weight [31]: 31.1 g
body weight change (% wt/wt) [31]: 0%
body weight [32]: 30.5 g
body weight change (% wt/wt) [32]: −1.9%
body weight [33]: 29.6 g
body weight change (% wt/wt) [33]: −4.8%
body weight [34]: 28.6 g
body weight change (% wt/wt) [34]: −8.0%
body weight [35]: 28.4 g
body weight change (% wt/wt) [35]: −8.7%
body weight [36]: 28.5 g
body weight change (% wt/wt) [36]: −8.4%
body weight [37]: 28.4 g
body weight change (% wt/wt) [37]: −8.7%
body weight [38]: 28.7 g
body weight change (% wt/wt) [38]: −7.7%
body weight [39]: 29 g
body weight change (% wt/wt) [39]: −6.8%
body weight [40]: 29.3 g
body weight change (% wt/wt) [40]: −5.8%
body weight [41]: 29 g
body weight change (% wt/wt) [41]: −6.8%
body weight [42]: 29.4 g
body weight change (% wt/wt) [42]: −5.5%
body weight [43]: 29.8 g
body weight change (% wt/wt) [43]: −4.2%
body weight [44]: 29.8 g
body weight change (% wt/wt) [44]: 4.2%
body weight [45]: 29.2 g
body weight change (% wt/wt) [45]: −6.1%
toxicity (male and female mice, 100-400 mg/kg IP in 20% hydroxypropylcyclodextrane, 10 ml/kg): not toxic
body weight (male mice, 100 mg/kg IP, day 1): 37.4 g
body weight change (% wt/wt) (male mice, 100 mg/kg IP, day 1): 0%
body weight (male mice, 100 mg/kg IP, day 2): 38.2 g
body weight change (% wt/wt) (male mice, 100 mg/kg IP, day 2): 2.1%
body weight (male mice, 100 mg/kg IP, day 3): 38 g
body weight change (% wt/wt) (male mice, 100 mg/kg IP, day 3): 1.6%
body weight (male mice, 100 mg/kg IP, day 4): 37.3 g
body weight change (% wt/wt) (male mice, 100 mg/kg IP, day 4): −0.3%
body weight (male mice, 100 mg/kg IP, day 5): 37.9 g
body weight change (% wt/wt) (male mice, 100 mg/kg IP, day 5): 1.3%
body weight (male mice, 100 mg/kg IP, day 6): 37.5 g
body weight change (% wt/wt) (male mice, 100 mg/kg IP, day 6): 0.3%
body weight (male mice, 100 mg/kg IP, day 7): 37.4 g
body weight change (% wt/wt) (male mice, 100 mg/kg IP, day 7): 0.0%
body weight (male mice, 100 mg/kg IP, day 8): 37.5 g
body weight change (% wt/wt) (male mice, 100 mg/kg IP, day 8): 0.3%
body weight (male mice, 100 mg/kg IP, day 9): 36.8 g
body weight change (% wt/wt) (male mice, 100 mg/kg IP, day 9): −1.6%
body weight [46]: 37.2 g
body weight change (% wt/wt) [46]: −0.5%
body weight [47]: 37.3 g
body weight change (% wt/wt) [47]: −0.3%
body weight [48]: 37.3 g
body weight change (% wt/wt) [48]: −0.3%
body weight [49]: 37.7 g
body weight change (% wt/wt) [49]: 0.8%
body weight [50]: 38.1 g
body weight change (% wt/wt) [50]: 1.9%
body weight [51]: 36.6 g
body weight change (% wt/wt) [51]: −2.1%
body weight (male mice, 200 mg/kg IP, day 1): 37.8 g
body weight change (% wt/wt) (male mice, 200 mg/kg IP, day 1): 0%
body weight (male mice, 200 mg/kg IP, day 2): 38.1 g
body weight change (% wt/wt) (male mice, 200 mg/kg IP, day 2): 0.8%
body weight (male mice, 200 mg/kg IP, day 3): 38.2 g
body weight change (% wt/wt) (male mice, 200 mg/kg IP, day 3): 1.1%
body weight (male mice, 200 mg/kg IP, day 4): 38.3 g
body weight change (% wt/wt) (male mice, 200 mg/kg IP, day 4): 1.3%
body weight (male mice, 200 mg/kg IP, day 5): 37.6 g
body weight change (% wt/wt) (male mice, 200 mg/kg IP, day 5): −0.5%
body weight (male mice, 200 mg/kg IP, day 6): 38 g
body weight change (% wt/wt) (male mice, 200 mg/kg IP, day 6): 0.5%
body weight (male mice, 200 mg/kg IP, day 7): 39.2 g
body weight change (% wt/wt) (male mice, 200 mg/kg IP, day 7): 3.7%
body weight (male mice, 200 mg/kg IP, day 8): 39.7 g
body weight change (% wt/wt) (male mice, 200 mg/kg IP, day 8): 5.0%
body weight (male mice, 200 mg/kg IP, day 9): 38 g
body weight change (% wt/wt) (male mice, 200 mg/kg IP, day 9): 0.5%
body weight [52]: 37.9 g
body weight change (% wt/wt) [52]: 0.3%
body weight [53]: 38.2 g
body weight change (% wt/wt) [53]: 1.1%
body weight [54]: 38.7 g
body weight change (% wt/wt) [54]: 2.4%
body weight [55]: 37.9 g
body weight change (% wt/wt) [55]: 0.3%
body weight [56]: 38.8 g
body weight change (% wt/wt) [56]: 2.6%
body weight [57]: 37.6 g
body weight change (% wt/wt) [57]: −0.5%
body weight (male mice, 400 mg/kg IP, day 1): 40.3 g
body weight change (% wt/wt) (male mice, 400 mg/kg IP, day 1): 0%
body weight (male mice, 400 mg/kg IP, day 2): 40 g
body weight change (% wt/wt) (male mice, 400 mg/kg IP, day 2): −.07%
body weight (male mice, 400 mg/kg IP, day 3): 41.3 g
body weight change (% wt/wt) (male mice, 400 mg/kg IP, day 3): 2.5%
body weight (male mice, 400 mg/kg IP, day 4): 40.8 g
body weight change (% wt/wt) (male mice, 400 mg/kg IP, day 4): 1.2%
body weight (male mice, 400 mg/kg IP, day 5): 39.6 g
body weight change (% wt/wt) (male mice, 400 mg/kg IP, day 5): −1.7%
body weight (male mice, 400 mg/kg IP, day 6): 40.4 g
body weight change (% wt/wt) (male mice, 400 mg/kg IP, day 6): 0.2%
body weight (male mice, 400 mg/kg IP, day 7): 40.5 g
body weight change (% wt/wt) (male mice, 400 mg/kg IP, day 7): 0.5%
body weight (male mice, 400 mg/kg IP, day 8): 40.7 g
body weight change (% wt/wt) (male mice, 400 mg/kg IP, day 8): 1.0%
body weight (male mice, 400 mg/kg IP, day 9): 39.4 g
body weight change (% wt/wt) (male mice, 400 mg/kg IP, day 9): −2.2%
body weight [58]: 40 g
body weight change (% wt/wt) [58]: −0.7%
body weight [59]: 39.7 g
body weight change (% wt/wt) [59]: −1.5%
body weight [60]: 40.1 g
body weight change (% wt/wt) [60]: −0.5%
body weight [61]: 40.1 g
body weight change (% wt/wt) [61]: −0.5%
body weight [62]: 40.2 g
body weight change (% wt/wt) [62]: −0.2%
body weight [63]: 39.3 g
body weight change (% wt/wt) [63]: −2.5%
observations after administration (mice, IP administration): a decrease in locomotor and piloererection right after administration were observed, these were reversible and full recovery was observed
